Where only a bound is given, the exact number is not on record here.

The target in data set [1] is Calcium/calmodulin-dependent protein kinase type 1B (Homo sapiens, UniProt Q6P2M8). In words: Inhibition of PNCK at compound concentration of 10.0 uM using the ScanMax (DiscoverX).
The target in a further data set is Histamine H1 receptor (Homo sapiens, UniProt P35367). In words: GPCRScan assay: inhibition of H1. Also noted: radioligand conc. used [nm] 0.6 – 2.0, parental cells stable HEK.
The target of data set [2] is Adenosine receptor A3 (Homo sapiens) (UniProt P0DMS8). In words: Adenosine A 3 receptor (h) CEREP ligand profiling. The following applies: Compound concentration 10.0 uM.
The target of data set [3] is Vasopressin V1a receptor (Homo sapiens) (UniProt P37288). In words: Vasopresine V1a receptor (h) CEREP ligand profiling. The following applies: Compound concentration 10.0 uM.
Data set [4] has as its target Beta-1 adrenergic receptor (Homo sapiens) (UniProt P08588). Put plainly: beta1-adrenoceptor (h) CEREP ligand profiling. The following applies: Compound concentration 10.0 uM.
Data set [5] concerns the target Beta-2 adrenergic receptor (Homo sapiens) (UniProt P07550). Put plainly: beta2-adrenoceptor (h) CEREP ligand profiling. The following applies: Compound concentration 10.0 uM.
For data set [6], the target named is Sodium-dependent noradrenaline transporter (Homo sapiens) (UniProt P23975). Put plainly: Norepinephrine uptake CEREP ligand profiling. The following applies: Compound concentration 10.0 uM.
Data set [7] has as its target Type-2 angiotensin II receptor (Homo sapiens) (UniProt P50052). Put plainly: Angiotensin AT2 receptor (h) CEREP ligand profiling. The following applies: Compound concentration 10.0 uM.
The target of data set [8] is Cannabinoid receptor 1 (Homo sapiens) (UniProt P21554). In words: Cannabinoid CB1 receptor (h) CEREP ligand profiling. The following applies: Compound concentration 10.0 uM.
Data set [9] addresses Cannabinoid receptor 2 (Homo sapiens) (UniProt P34972). Put plainly: Cannabinoid CB2 receptor (h) CEREP ligand profiling. The following applies: Compound concentration 10.0 uM.
The target in data set [10] is Gastrin/cholecystokinin type B receptor (Homo sapiens) (UniProt P32239). In words: CholecystokininB receptor (h) CEREP ligand profiling. The following applies: Compound concentration 10.0 uM.
Sequence of Gastrin/cholecystokinin type B receptor (Homo sapiens) (P32239 whole entry): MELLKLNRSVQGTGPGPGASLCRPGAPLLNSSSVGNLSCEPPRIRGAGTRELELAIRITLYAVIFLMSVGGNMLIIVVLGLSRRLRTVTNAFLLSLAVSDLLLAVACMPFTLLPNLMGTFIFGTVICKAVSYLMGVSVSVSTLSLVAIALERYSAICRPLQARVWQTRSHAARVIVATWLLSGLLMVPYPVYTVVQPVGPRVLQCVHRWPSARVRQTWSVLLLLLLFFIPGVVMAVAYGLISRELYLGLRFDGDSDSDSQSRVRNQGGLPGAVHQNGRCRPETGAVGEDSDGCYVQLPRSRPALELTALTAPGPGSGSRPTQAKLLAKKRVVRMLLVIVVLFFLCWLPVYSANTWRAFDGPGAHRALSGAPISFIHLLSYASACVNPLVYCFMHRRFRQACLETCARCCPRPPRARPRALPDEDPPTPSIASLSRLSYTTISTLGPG
For data set [11], the target named is D(1A) dopamine receptor (Homo sapiens) (UniProt P21728). Put plainly: Dopamine D1 receptor (h) CEREP ligand profiling. The following applies: Compound concentration 10.0 uM.
The target in data set [12] is T1, D(4) dopamine receptor (Homo sapiens) (UniProt P21917).
T1 sequence (whole entry): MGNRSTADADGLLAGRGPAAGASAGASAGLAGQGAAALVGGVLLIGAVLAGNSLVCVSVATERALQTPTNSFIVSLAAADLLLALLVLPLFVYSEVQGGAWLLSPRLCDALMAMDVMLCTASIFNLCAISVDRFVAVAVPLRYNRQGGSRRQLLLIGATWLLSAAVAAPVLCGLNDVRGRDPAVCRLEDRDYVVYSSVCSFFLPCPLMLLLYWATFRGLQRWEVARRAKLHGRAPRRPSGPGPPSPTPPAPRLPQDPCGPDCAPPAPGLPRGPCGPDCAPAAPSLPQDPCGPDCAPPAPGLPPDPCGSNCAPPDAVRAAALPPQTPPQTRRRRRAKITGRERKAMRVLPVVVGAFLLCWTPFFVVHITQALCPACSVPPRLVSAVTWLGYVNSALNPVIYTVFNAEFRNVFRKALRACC
Put plainly: Dopamine D4 receptor (h) CEREP ligand profiling. The following applies: Compound concentration 10.0 uM.

The target in data set [13] is Sodium-dependent dopamine transporter (Homo sapiens) (UniProt Q01959). In words: Dopamine uptake (h) CEREP ligand profiling. The following applies: Compound concentration 10.0 uM.
The nature of data set [14]: GABA receptor (non-selective) CEREP ligand profiling. The following applies: Compound concentration 10.0 uM.
Data set [15] deals with Galanin receptor (Homo sapiens) (UniProt O60755+O43603+P47211). In words: Galanin receptor (h) CEREP ligand profiling. It counts as protein assay. The following applies: Compound concentration 10.0 uM.
Sequence of Galanin receptor (Homo sapiens) (O43603 whole entry, looked up): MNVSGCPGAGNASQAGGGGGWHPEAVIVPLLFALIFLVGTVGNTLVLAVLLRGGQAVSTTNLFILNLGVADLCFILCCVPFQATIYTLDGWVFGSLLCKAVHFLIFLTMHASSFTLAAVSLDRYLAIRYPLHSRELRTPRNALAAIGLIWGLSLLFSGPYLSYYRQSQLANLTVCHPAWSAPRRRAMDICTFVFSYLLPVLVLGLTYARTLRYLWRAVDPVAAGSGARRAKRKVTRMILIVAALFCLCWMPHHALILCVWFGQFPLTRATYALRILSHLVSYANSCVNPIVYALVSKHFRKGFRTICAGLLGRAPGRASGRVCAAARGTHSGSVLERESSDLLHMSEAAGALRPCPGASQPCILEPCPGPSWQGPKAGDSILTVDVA
Sequence of Galanin receptor (Homo sapiens) (O60755 whole entry, looked up): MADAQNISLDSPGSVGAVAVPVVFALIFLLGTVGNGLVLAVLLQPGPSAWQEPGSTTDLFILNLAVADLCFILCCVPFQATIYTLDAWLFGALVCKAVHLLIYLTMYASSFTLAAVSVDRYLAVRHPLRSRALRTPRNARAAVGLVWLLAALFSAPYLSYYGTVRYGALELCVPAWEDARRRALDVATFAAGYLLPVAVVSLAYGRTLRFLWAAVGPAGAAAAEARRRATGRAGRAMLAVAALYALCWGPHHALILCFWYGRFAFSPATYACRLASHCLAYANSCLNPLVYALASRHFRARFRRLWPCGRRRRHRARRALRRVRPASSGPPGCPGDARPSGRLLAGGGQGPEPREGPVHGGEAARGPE
Sequence of Galanin receptor (Homo sapiens) (P47211 whole entry, looked up): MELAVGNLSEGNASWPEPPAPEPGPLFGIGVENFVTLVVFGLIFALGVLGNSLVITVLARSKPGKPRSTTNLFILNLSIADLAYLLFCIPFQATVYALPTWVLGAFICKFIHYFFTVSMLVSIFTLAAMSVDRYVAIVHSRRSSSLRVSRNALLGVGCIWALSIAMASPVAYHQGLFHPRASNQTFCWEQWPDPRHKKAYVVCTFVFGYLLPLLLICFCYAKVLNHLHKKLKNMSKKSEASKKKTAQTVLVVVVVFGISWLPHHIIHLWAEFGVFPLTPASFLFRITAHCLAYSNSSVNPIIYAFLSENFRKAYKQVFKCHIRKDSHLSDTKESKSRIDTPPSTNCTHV
The target of data set [16] is Interleukin-1 beta (Homo sapiens) (UniProt P01584). Put plainly: Interleukin-1beta CEREP ligand profiling. The following applies: Compound concentration 10.0 uM.
Sequence of Interleukin-1 beta (Homo sapiens) (P01584 117-269 limits assumed): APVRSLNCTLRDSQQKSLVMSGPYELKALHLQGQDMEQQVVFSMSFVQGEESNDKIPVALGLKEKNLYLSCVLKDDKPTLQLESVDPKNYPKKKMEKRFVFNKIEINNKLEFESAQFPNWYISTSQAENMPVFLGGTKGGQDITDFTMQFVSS
In data set [17] the target is Muscarinic acetylcholine receptor M3 (Homo sapiens) (UniProt P20309). In words: Muscarinic M3 receptors (h) CEREP ligand profiling. The following applies: Compound concentration 10.0 uM.
Sequence of Muscarinic acetylcholine receptor M3 (Homo sapiens) (P20309 whole entry, looked up): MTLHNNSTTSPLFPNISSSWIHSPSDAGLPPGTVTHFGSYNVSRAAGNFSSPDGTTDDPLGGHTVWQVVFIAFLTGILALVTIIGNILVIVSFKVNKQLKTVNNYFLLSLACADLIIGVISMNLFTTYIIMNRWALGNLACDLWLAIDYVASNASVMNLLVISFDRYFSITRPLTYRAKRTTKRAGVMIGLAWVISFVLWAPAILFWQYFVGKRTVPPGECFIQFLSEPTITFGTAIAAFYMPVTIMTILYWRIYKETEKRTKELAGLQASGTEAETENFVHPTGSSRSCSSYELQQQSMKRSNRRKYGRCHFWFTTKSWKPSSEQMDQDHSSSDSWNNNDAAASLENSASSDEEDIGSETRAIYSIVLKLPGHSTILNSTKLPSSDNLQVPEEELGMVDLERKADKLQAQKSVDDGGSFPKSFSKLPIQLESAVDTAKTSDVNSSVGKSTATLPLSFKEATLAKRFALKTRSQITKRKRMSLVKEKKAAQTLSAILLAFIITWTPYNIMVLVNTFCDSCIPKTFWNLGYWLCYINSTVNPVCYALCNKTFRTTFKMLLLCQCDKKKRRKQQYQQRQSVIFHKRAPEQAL
Data set [18] deals with Neuropeptide Y receptor type 1 (Homo sapiens) (UniProt P25929). In words: Y1 receptor CEREP ligand profiling. The following applies: Compound concentration 10.0 uM.
Data set [19] addresses Delta-type opioid receptor (Homo sapiens) (UniProt P41143). Put plainly: delta-Opioid receptor (h) CEREP ligand profiling. The following applies: Compound concentration 10.0 uM.
Data set [20] has as its target Glutamate NMDA receptor (Rattus norvegicus) (UniProt P35439+Q00959+Q00960+Q00961+Q62645+Q8VHN2+Q9R1M7). In words: PCP receptor CEREP ligand profiling. The following applies: Compound concentration 10.0 uM. It is filed as protein-complex assay.
Data set [21] has as its target Prostacyclin receptor (Homo sapiens) (UniProt P43119). In words: Prostaglandin I2 receptor CEREP ligand profiling. The following applies: Compound concentration 10.0 uM.
Data set [22] has as its target T2, 5-hydroxytryptamine receptor 1A (Homo sapiens) (UniProt P08908).
T2 sequence (whole entry): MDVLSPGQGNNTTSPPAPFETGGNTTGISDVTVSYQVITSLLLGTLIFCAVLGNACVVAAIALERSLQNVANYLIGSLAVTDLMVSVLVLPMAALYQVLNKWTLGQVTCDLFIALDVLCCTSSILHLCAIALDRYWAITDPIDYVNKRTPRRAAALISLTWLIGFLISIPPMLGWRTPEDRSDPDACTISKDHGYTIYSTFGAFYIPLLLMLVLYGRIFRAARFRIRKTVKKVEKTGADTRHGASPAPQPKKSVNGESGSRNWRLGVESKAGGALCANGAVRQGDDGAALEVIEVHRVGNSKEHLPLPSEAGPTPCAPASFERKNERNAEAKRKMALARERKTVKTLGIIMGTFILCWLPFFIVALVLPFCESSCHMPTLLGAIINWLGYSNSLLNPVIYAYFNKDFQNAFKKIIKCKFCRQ
In words: 5-Hydroxytryptamine1A (h) CEREP ligand profiling. The following applies: Compound concentration 10.0 uM.

The target of data set [23] is 5-hydroxytryptamine receptor 2A (Homo sapiens) (UniProt P28223). Put plainly: 5-Hydroxytryptamine2A (h) CEREP ligand profiling. The following applies: Compound concentration 10.0 uM.
The target in data set [24] is 5-hydroxytryptamine receptor 5A (Homo sapiens) (UniProt P47898). In words: 5-Hydroxytryptamine5A (h) CEREP ligand profiling. The following applies: Compound concentration 10.0 uM.
For data set [25], the target named is 5-hydroxytryptamine receptor 7 (Homo sapiens) (UniProt P34969). Put plainly: 5-Hydroxytryptamine7 (h) CEREP ligand profiling. The following applies: Compound concentration 10.0 uM.
Sequence of 5-hydroxytryptamine receptor 7 (Homo sapiens) (P34969 whole entry): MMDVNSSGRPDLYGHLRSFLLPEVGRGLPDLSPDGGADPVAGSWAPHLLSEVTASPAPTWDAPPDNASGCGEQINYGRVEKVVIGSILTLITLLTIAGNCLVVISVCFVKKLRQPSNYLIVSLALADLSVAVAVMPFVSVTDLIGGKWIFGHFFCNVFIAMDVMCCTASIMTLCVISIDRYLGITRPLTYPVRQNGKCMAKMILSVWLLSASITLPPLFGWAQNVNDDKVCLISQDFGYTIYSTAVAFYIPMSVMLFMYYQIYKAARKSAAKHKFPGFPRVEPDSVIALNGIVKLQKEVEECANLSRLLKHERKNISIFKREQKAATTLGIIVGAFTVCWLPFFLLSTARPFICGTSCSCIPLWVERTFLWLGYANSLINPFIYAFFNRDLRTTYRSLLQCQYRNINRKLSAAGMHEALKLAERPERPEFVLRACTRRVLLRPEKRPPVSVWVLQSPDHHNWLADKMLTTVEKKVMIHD
Data set [26] deals with Vasopressin V2 receptor (Homo sapiens) (UniProt P30518). In words: Vasopresine V2 receptor CEREP ligand profiling. The following applies: Compound concentration 10.0 uM.
Data set [27] has as its target Voltage-gated L-type calcium channel (verapamil site) (Homo sapiens, UniProt O60840+Q01668+Q13698+Q13936). Put plainly: Ca2+ channel (L, verapamil site) CEREP ligand profiling. It is filed as protein assay. The following applies: compound concentration 10 uM.
Data set [28] is described as follows: Cl- ionophore CEREP ligand profiling. The following applies: Compound concentration 10.0 uM.
Data set [29] has as its target 5-hydroxytryptamine receptor 7 (Homo sapiens) (UniProt P34969). The following applies: Compound concentration 10.0 uM.
Data set [30] concerns the target GABA-A receptor; anion channel (Rattus norvegicus) (UniProt O09028+P15431+P18506+P18508+P19969+P20236+P23574+P23576+P28471+P28473+P30191+P62813+P63079+P63138+Q91ZM7+Q9ES14). The following applies: Compound concentration 10.0 uM.
The target in data set [31] is Alpha-2B adrenergic receptor (Homo sapiens, UniProt P18089). Put plainly: GPCRScan assay: inhibition of Alpha2B. Also noted: radioligand conc. used [nm] 1.5 – 2.0, parental cells HEKT.
Sequence of Alpha-2B adrenergic receptor (P18089 whole entry): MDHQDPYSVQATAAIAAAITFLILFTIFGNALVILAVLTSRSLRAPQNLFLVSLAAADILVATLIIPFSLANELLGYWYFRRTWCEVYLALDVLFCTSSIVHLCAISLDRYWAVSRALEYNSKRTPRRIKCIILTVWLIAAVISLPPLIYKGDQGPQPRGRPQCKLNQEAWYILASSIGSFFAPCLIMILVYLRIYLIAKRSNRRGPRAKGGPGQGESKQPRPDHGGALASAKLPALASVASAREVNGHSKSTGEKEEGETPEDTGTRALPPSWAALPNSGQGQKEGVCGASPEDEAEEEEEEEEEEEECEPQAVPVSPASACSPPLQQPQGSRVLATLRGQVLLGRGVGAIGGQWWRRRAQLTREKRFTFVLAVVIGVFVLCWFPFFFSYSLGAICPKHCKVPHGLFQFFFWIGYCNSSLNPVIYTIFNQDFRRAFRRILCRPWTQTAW
The target of data set [32] is Alpha-2A adrenergic receptor (Homo sapiens) (UniProt P08913). The following applies: Compound concentration 10.0 uM.
Data set [33] deals with Alpha-1D adrenergic receptor (Homo sapiens) (UniProt P25100). The following applies: Compound concentration 10.0 uM.

Sequence of Delta-type opioid receptor (Homo sapiens) (P41143 whole entry): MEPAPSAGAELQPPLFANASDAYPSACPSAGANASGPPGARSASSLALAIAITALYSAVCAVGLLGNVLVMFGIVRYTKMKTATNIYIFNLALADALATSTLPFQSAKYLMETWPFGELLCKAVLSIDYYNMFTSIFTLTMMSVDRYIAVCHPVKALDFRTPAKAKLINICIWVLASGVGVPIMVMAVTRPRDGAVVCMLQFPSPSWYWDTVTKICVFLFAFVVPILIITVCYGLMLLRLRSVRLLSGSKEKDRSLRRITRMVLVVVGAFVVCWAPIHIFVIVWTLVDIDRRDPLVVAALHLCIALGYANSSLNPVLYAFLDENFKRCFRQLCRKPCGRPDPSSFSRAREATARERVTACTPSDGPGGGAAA
Sequence of Type-2 angiotensin II receptor (Homo sapiens) (P50052 whole entry): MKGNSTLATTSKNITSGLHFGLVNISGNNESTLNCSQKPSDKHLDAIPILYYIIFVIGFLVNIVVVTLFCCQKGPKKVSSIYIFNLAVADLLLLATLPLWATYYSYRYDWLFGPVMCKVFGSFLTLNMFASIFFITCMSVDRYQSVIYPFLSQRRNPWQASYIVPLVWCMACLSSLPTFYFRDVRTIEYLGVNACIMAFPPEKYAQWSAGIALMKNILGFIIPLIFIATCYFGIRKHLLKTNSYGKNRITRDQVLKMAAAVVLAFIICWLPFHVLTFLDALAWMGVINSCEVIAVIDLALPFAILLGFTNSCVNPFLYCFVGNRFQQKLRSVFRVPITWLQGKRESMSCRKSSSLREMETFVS
Sequence of Histamine H1 receptor (P35367 whole entry): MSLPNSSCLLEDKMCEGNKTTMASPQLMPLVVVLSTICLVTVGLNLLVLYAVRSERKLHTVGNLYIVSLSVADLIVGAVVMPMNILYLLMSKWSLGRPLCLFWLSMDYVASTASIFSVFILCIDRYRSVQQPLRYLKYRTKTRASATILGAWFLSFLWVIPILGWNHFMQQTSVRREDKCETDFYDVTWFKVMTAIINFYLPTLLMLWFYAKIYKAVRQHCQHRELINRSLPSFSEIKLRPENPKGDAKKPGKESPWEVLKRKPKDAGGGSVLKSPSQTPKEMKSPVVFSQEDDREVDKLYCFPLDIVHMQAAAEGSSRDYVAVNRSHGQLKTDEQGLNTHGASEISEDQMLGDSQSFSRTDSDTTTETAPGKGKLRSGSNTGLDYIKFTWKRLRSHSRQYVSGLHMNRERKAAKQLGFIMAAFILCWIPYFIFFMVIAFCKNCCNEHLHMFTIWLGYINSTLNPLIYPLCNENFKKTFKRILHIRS
Sequence of Calcium/calmodulin-dependent protein kinase type 1B (Q6P2M8 whole entry): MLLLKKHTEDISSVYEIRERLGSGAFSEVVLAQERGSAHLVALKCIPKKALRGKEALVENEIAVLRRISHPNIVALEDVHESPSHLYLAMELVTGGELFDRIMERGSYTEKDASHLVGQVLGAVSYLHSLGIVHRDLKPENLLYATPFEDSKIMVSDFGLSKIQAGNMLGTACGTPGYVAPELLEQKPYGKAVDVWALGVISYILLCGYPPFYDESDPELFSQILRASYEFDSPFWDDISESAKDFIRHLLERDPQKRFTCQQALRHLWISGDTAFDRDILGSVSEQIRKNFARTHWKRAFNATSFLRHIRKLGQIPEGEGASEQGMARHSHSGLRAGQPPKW

In the case of `CCCCN(CCCC)C(=O)CN1C[C@H](c2cc(OC)c3c(c2)OCO3)[C@@H](C(=O)O)[C@@H]1CC(C)(C)CCC` [ABT-546], the Kd in data set [1] is recorded as > 10 µM (not active). Also, the Ki at Histamine H1 receptor amounted to 10 µM. Also, the inhibition in data set [2] was 32%; in [3] it was < 10%; in data set [4], < 10%; in data set [5], < 10%; in data set [6] it was < 10%; in data set [7], < 10%. Further, the inhibition is < 10% in [8]; 11% in [9]; < 10% in [10]; 14% in data set [11]; < 10% in [12]; < 10% in data set [13]. In addition, the inhibition was < 10% in data set [14]; < 10% in data set [15]; < 10% in [16]; < 10% in [17]; < 10% in data set [18]; 62% in data set [19]. Also, the inhibition was < 10% in data set [20]; 15% in [21]; < 10% in data set [22]; < 10% in [23]; < 10% in data set [24]; < 10% in data set [25]. Moreover, the inhibition in data set [26] was < 10%; in data set [28] it was 61%; in [29], -2.24%; in data set [30], -5.72%. In addition, the inhibition at 10 µM in data set [27] is 29% (not active).

Consider `CCCCN(CCCC)C(=O)CN1C[C@@H](c2cc(OC)c3c(c2)OCO3)[C@H](C(=O)O)[C@H]1CC(C)(C)CCC` [A-545], for which the Ki in data set [31] (read-out: Ki) is 4.64 µM; in [31] (read-out: pKi (converted)), 4.17 µM. For the same molecule, the inhibition in data set [32] was 19.1%; in [33] it was 6.55%.

The values above are taken from ChEMBL document CHEMBL4507258 (2021).
